These are literature values, as cited in patent US7879906B2, “GABA analogs, compositions and methods for manufacturing thereof” (Anchen Laboratories, Inc., priority 2006, dated 2011).

For the data set, the system named is mouse.

Regarding `O=C1CC2(CCCCC2)CN1` [gabapentin lactam], the “toxicity (LD50, mouse)” value was 300 mg/kg.

Turning to `NCC1(CC(=O)O)CCCCC1` [gabapentin], the “toxicity (LD50, mouse)” value was “more than 8000 mg/kg”.
